Tests used:
[1] = for Prediction of CNS penetration: from PAMPA-BBB Pe; for BBB penetration in PAMPA assay: stated in words
CA-II = conditions: read-out: Ki CA-II inhibition; cited from earlier work
in vitro = conditions: PAMPA
human CA-II = human CA-II (Homo sapiens, UniProt P00918); assay: In vitro human CA-II inhibition assay; type: biochemical
[2] = target: electric eel acetylcholinesterase (eeAChE) (Electrophorus electricus, UniProt O42275); assay: Acetylcholinesterase inhibition assay; type: biochemical; conditions: for IC50: IC50 (μM) ± SEM eeAChE, mean ± SEM, n = 3; for SI (Selectivity index): Selectivity index = IC50 of BChE/IC50 of AChE
SH-SY5Y cells = assay: Cell viability/neurotoxicity assay; type: cell-based, human
Aβ1–42 peptide = Aβ1–42 peptide (Homo sapiens, UniProt P05067); assay: Self-mediated Aβ1–42 aggregation assay; type: biochemical; conditions: for inhibition of Aβ fibrils: ThT fluorescence, after 24 hours of equimolar treatment with Aβ1–42
eqBChE = eqBChE (Equus caballus, UniProt P81908); assay: Butyrylcholinesterase inhibition assay; type: biochemical
AChE = conditions: read-out: Ki AChE; non-competitive inhibitor; cited from earlier work

eqBChE, sequence (P81908 whole entry): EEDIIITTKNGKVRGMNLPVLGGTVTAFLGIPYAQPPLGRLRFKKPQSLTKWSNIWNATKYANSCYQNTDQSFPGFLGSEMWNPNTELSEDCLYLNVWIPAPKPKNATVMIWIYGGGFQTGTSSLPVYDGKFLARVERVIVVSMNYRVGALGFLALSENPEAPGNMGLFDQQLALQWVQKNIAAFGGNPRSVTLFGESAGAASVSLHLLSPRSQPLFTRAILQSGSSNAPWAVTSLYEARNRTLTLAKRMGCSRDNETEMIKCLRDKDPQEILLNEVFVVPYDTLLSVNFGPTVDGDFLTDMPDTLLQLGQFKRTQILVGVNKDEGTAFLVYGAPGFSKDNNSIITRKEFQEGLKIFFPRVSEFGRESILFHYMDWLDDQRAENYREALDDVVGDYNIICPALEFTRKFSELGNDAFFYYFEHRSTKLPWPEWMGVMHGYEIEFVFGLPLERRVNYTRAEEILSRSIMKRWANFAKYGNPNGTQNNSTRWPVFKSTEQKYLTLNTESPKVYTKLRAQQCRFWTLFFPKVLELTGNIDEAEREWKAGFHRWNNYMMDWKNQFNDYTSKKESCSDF
Aβ1–42 peptide, sequence (P05067 672-713): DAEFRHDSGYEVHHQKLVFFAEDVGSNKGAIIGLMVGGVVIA
electric eel acetylcholinesterase (eeAChE), sequence (O42275 24-633): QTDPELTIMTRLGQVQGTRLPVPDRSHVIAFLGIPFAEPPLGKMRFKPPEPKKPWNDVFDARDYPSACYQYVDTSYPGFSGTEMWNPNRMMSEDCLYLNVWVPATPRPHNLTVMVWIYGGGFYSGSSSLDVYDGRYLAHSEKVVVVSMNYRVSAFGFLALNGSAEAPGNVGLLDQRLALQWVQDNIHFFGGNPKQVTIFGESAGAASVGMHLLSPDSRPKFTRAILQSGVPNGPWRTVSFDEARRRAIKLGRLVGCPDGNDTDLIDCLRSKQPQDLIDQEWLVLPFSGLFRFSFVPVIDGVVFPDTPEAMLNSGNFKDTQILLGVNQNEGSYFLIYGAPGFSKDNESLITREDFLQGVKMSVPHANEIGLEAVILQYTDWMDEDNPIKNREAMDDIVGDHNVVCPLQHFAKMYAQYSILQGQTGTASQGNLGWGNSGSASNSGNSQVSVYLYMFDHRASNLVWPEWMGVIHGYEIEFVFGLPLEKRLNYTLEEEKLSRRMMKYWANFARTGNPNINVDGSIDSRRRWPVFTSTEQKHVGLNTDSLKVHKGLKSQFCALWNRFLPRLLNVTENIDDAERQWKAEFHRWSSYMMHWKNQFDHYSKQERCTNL

Question: With `Cc1nnc2n1-c1ccc(Cl)cc1C(c1ccccc1)=NC2` [Alprazolam, reference compound] as the compound, how does the “Prediction of CNS penetration” value [1] read?
Answer: Its value is “High (‘CNS+’ (prediction of high BBB permeation); Pe (10^−6 cm s^−1) > 4.39)”.

Question: Which Ki (CA-II) does the source give for `C[C@]12CC[C@@H]3c4ccc(O)cc4CC[C@H]3[C@@H]1CC[C@H]2O` [Compound 4, α-estradiol] here?
Answer: The Ki was 40.4 µM.

Question: For `C[C@H](CCC(=O)O)[C@H]1CC[C@H]2[C@@H]3CC[C@@H]4C[C@H](O)CC[C@]4(C)[C@H]3C[C@H](O)[C@]12C` [Compound 5, deoxycholic acid], which Ki (CA-II) is on record?
Answer: The Ki was 51 µM.

Question: Which “Prediction of CNS penetration” value [1] does the source give for `CC(=O)C1CC[C@H]2[C@@H]3CC=C4CC(N)CC[C@]4(C)[C@H]3CC[C@]12C` (stereo partly drawn) [Compound 12, 1-((8S,9S,10R,13S,14S)-3-amino-10,13-dimethyl-2,3,4,7,8,9,10,11,12,13,14,15,16,17-tetradecahydro-1H-cyclopenta[a]phenanthren-17-yl)ethan-1-one] here?
Answer: The value was “High (‘CNS+’ (prediction of high BBB permeation); Pe (10^−6 cm s^−1) > 4.39)”.

Question: What about the “BBB penetration in PAMPA assay” value [1] of the same compound?
Answer: The value was “high BBB penetration”.

Question: What about the Papp (in vitro) of the same compound?
Answer: Its Papp is 19.6 ×10⁻⁶ cm/s.

Question: What about the IC50 (human CA-II) of the same compound?
Answer: The IC50 was 73.2 ± 1.14 µM.

Question: And the IC50 [2]?
Answer: Its IC50 is 67.7 ± 1.09 µM.

Question: Which results are given for `CC(=O)C1CC[C@H]2[C@@H]3CC=C4CC(NC(=S)Nc5ccc(S(N)(=O)=O)cc5)CC[C@]4(C)[C@H]3CC[C@]12C` (stereo partly drawn) [Compound 15, 4-(3-((8S,9S,10R,13S,14S)-17-Acetyl-10,13-dimethyl-2,3,4,7,8,9,10,11,12,13,14,15,16,17-tetradecahydro-1H-cyclopenta[a]phenanthren-3yl)thioureido)benzenesulfonamide]?
Answer: viability at 5 µM (SH-SY5Y cells; Homo sapiens, SH-SY5Y, read-out: cell viability): ~75%; IC50 (Aβ1–42 peptide): 9.25 ± 0.17 µM; inhibition of Aβ fibrils (Aβ1–42 peptide): approximately 60%; IC50 (human CA-II): 48.9 ± 1.37 µM; IC50 (eqBChE): 63 ± 1.23 µM; IC50 [2]: 13 ± 0.18 µM; SI (Selectivity index) [2]: 4.8

Question: What does the source list for `C[C@]12CCC(NC(=S)Nc3ccc(S(N)(=O)=O)cc3)CC1=CC[C@@H]1[C@@H]2CC[C@]2(C)C(C(=O)CNCCc3ccccc3)CC[C@@H]12` (stereo partly drawn) [Compound 24, 4-(3-((8S,9S,10R,13S,14S)-10,13-Dimethyl-17-(phenethylglycyl)-2,3,4,7,8,9,10,11,12,13,14,15,16,17-tetradeca-hydro-1H-cyclopenta[a]phenanthren-3-yl)thioureido)benzenesulfonamide]?
Answer: IC50 (Aβ1–42 peptide): 29.6 ± 1.21 µM; IC50 (human CA-II): 5.44 ± 0.14 µM; IC50 (eqBChE): 12.8 ± 0.45 µM; IC50 [2]: 1.61 ± 0.1 µM; SI (Selectivity index) [2]: 8.0

Question: For `C[C@]12CCC(NC(=S)Nc3ccc(S(N)(=O)=O)cc3)CC1=CC[C@@H]1[C@@H]2CC[C@]2(C)C(C(=O)CNCc3ccccc3)CC[C@@H]12` (stereo partly drawn) [Compound 25, 4-(3-((8S,9S,10R,13S,14S)-17-(Benzylglycyl)-10,13-di-methyl-2,3,4,7,8,9,10,11,12,13,14,15,16,17-tetradeca-hydro-1H-cyclopenta[a]phenanthren-3-yl)thioureido)benzenesulfonamide], which IC50 (Aβ1–42 peptide) is on record?
Answer: Its IC50 is 12.8 ± 0.15 µM.

Question: And the IC50 (human CA-II)?
Answer: The IC50 was 1.02 ± 0.01 µM.

Question: What about the IC50 (eqBChE) of the same compound?
Answer: Its IC50 is 11.27 ± 0.11 µM.

Question: And the IC50 [2]?
Answer: Its IC50 is 0.98 ± 0.1 µM.

Question: What about the “SI (Selectivity index)” value [2] of the same compound?
Answer: Its value is 11.5.

Question: Which results are given for `C[C@]12CCC(NC(=S)Nc3ccc(S(N)(=O)=O)cc3)CC1=CC[C@@H]1[C@@H]2CC[C@]2(C)C(C(=O)CN3c4ccccc4Sc4ccccc43)CC[C@@H]12` (stereo partly drawn) [Compound 27, 4-(3-((8S,9S,10R,13S,14S)-17-(2-(10H-Phenothiazin-10-yl)acetyl)-10,13-dimethyl-2,3,4,7,8,9,10,11,12,13,14,15,16,17-tetradecahydro-1H-cyclopenta[a]phenanthren-3-yl)thioureido)benzenesulfonamide]?
Answer: Prediction of CNS penetration [1]: High (‘CNS+’ (prediction of high BBB permeation); Pe (10^−6 cm s^−1) > 4.39); BBB penetration in PAMPA assay [1]: BBB penetrants; protection of SH-SY5Y cells from the toxicity of the Aβ peptide (SH-SY5Y cells; SH-SY5Y cells incubated with Aβ1–42): effectively protected; cytotoxicity (SH-SY5Y cells; SH-SY5Y cells, 5 μM): completely non-cytotoxic; IC50 (Aβ1–42 peptide): 5.78 ± 0.07 µM; inhibition of Aβ fibrils (Aβ1–42 peptide): 85%; Papp (in vitro): 18.1 ×10⁻⁶ cm/s; IC50 (human CA-II): 5.18 ± 0.12 µM; IC50 (eqBChE): 15.01 ± 0.03 µM; IC50 [2]: 0.094 ± 0.002 µM; SI (Selectivity index) [2]: 166.7

Question: What does the source list for `C[C@]12CCC(NC(=S)Nc3ccc(S(N)(=O)=O)cc3)CC1=CC[C@@H]1[C@@H]2CC[C@]2(C)C(C(=O)CNc3c4c(cc5ccccc35)CCCC4)CC[C@@H]12` (stereo partly drawn) [Compound 28, 4-(3-((8S,9S,10R,13S,14S)-10,13-Dimethyl-17-((1,2,3,4-tetrahydroanthracen-9-yl)glycyl)-2,3,4,7,8,9,10,11,12,13,14,15,16,17-tetradecahydro-1H-cyclopenta[a]phenanthren-3-yl)thioureido)benzenesulfonamide]?
Answer: IC50 (Aβ1–42 peptide): 26.37 ± 0.25 µM; IC50 (human CA-II): 31.8 ± 1.08 µM; IC50 (eqBChE): 13.5 ± 0.09 µM; IC50 [2]: 0.32 ± 0.01 µM; SI (Selectivity index) [2]: 42.2

Question: With `COc1cc(/C=C/C(=O)CC(=O)/C=C/c2ccc(O)c(OC)c2)ccc1O` [Curcumin, reference compound] as the compound, how does the “inhibition of Aβ fibrils” value (Aβ1–42 peptide) read?
Answer: Its value is “approximately 60%”.

Question: With `CCn1cc(C(=O)O)c(=O)c2cc(F)c(N3CCNC(C)C3)c(F)c21` (stereo not shown) [Lomefloxacin, reference compound] as the compound, how does the “Prediction of CNS penetration” value [1] read?
Answer: The value was “No (‘CNS−’ (prediction of low BBB permeation); Pe (10^−6 cm s^−1) < 1.78)”.

Question: Which Ki (CA-II) does the source give for `C[C@]12CC[C@@H]3c4ccc(O)cc4CC[C@H]3[C@@H]1CCC2=O` [oestrone] here?
Answer: Its Ki is 50.8 µM.

Question: With hyocholic acid [Compound 3] as the compound, how does the Ki (CA-II) read?
Answer: The Ki was 38.9 µM.

Question: With isosarcodine as the compound, how does the Ki (AChE) read?
Answer: Its Ki is 21.8 µM.
